Laboratory results reported in PMC6934184, “Selective DNA-PKcs inhibition extends the therapeutic index of localized radiotherapy and chemotherapy” (The Journal of Clinical Investigation, 2019).

Target: T1, ABL1 (Homo sapiens, UniProt P00519)
T1 construct: purchased Thermo Fisher Scientific (Life Technologies) SelectScreen
Assay: SelectScreen Z'LYTE
Assay type: biochemical
How it was run: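 NU5455 was profiled across the SelectScreen Broad panel of kinase activity and binding assays. Z'LYTE reactions such as CSF1R ran at apparent Km ATP, while the Adapta CAMK1 assay used ATP listed as 10. Values are given as percent.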

T1 sequence (P00519 whole entry): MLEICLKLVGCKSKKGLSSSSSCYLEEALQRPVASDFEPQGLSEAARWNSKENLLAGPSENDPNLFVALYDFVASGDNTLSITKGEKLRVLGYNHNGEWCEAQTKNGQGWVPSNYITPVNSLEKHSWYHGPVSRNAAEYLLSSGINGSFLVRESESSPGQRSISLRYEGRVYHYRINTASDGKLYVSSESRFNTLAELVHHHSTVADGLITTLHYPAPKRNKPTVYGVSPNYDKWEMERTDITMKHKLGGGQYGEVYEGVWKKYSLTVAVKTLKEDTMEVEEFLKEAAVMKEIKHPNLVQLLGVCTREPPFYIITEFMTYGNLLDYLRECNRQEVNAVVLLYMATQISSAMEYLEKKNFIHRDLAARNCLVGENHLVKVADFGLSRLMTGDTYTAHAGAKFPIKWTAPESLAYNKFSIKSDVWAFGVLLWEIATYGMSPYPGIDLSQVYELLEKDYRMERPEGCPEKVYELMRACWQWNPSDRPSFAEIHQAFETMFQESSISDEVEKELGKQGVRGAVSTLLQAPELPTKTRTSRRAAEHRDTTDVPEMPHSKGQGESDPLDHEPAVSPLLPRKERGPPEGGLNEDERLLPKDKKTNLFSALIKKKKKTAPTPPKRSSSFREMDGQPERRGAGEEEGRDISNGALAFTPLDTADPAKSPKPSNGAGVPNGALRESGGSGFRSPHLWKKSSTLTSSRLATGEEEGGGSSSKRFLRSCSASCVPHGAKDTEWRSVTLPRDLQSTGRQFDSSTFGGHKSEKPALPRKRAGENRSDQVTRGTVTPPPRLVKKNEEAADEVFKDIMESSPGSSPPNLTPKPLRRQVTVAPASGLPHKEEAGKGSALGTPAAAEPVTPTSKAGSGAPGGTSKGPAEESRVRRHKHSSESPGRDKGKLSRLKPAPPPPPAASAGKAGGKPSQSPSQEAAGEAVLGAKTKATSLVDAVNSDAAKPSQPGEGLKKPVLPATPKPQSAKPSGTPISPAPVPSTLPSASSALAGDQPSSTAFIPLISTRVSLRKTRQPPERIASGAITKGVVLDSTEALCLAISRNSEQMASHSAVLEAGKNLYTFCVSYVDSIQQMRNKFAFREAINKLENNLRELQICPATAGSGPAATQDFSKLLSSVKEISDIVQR

SMILES: CN(C(=O)CN1CCOCC1)c1ccc2sc3c(-c4cccc5c(=O)cc(N6CC7CCC(C6)O7)oc45)cccc3c2c1 [NU5455]
- inhibition at 1 µM: 10.4%
